Experimental data from the supplement of paper PMC10307832.

Each cell line was assayed with CN1CCN(CC1)C2=CC(=C(C=C2)NC3=NC=C4C(=N3)N(C5=CC=CC=C5C(=O)N4C)C)OC [XMD8-85] + CCNC(=O)c1noc(-c2cc(C(C)C)c(O)cc2O)c1-c1ccc(CN2CCOCC2)cc1 [Luminespib] (partner 0.01 µM) (assay: relative viability (nuclei count vs DMSO), 5 days (fraction); higher = more cells survive). Details: first compound 0.08 µM.
Outline: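 Nuclei were stained with Hoechst during a one-step fixation (final 0.05% Triton X-100, 1% formaldehyde, 1 ug/ml Hoechst) carried out 5 days after dosing, then counted on 4× images. The cells, lung cancer lines in 1536-well plates, had been dosed by pin tool the day after seeding with one drug alone or a fixed anchor-drug dose plus five library-drug doses (not always all listed) in √10 steps. Relative viability is the nuclei count in treated wells divided by that in vehicle wells, and each value is the median of duplicate plates.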
NCI-H650 was tested, and the relative viability was 0.892.
In the case of NCI-H661, the relative viability is reported as 1.06.
With NCI-H727 the relative viability was 0.431.
Cell Line NCI-H838 has a relative viability of 0.234.
NCI-H1355 showed a relative viability of 0.528.
In the case of NCI-H1395, the relative viability is reported as 0.784.
NCI-H1437 was tested, and the relative viability was 1.15.
With NCI-H1650 the relative viability was 0.203.
Cell Line NCI-H1651 has a relative viability of 0.785.
For NCI-H1666, the relative viability was 1.
Work on NCI-H1734 yielded a relative viability of 0.176.
For NCI-H1755, the relative viability was 0.672.
For NCI-H1793, the relative viability was 0.144.
Cell Line NCI-H1915 has a relative viability of 0.807.
Work on NCI-H1944 yielded a relative viability of 0.658.
NCI-H1975 was tested, and the relative viability was 0.398.
Work on NCI-H1993 yielded a relative viability of 0.79.
NCI-H2009 gave a relative viability of 1.01.
Work on NCI-H2023 yielded a relative viability of 0.406.
NCI-H2085 was tested, and the relative viability was 0.412.
With NCI-H2087 the relative viability was 0.182.
NCI-H2126 was tested, and the relative viability was 0.948.
With NCI-H2170 the relative viability was 0.887.
For NCI-H2228, the relative viability was 0.154.
NCI-H2342 was tested, and the relative viability was 0.649.
NCI-H2347 showed a relative viability of 0.545.
NCI-H2405 was tested, and the relative viability was 0.63.
Cell Line NCI-H3122 has a relative viability of 0.117.
PC-3 [JPC-3] showed a relative viability of 0.725.
Work on PC-14 yielded a relative viability of 0.14.

Same assay, conditions: first compound 0.253 µM
NCI-H522 showed a relative viability of 1.31.
For NCI-H596, the relative viability was 1.02.
NCI-H647 gave a relative viability of 0.208.
With NCI-H650 the relative viability was 0.862.
For NCI-H661, the relative viability was 0.952.
NCI-H727 was tested, and the relative viability was 0.527.
In the case of NCI-H838, the relative viability is reported as 0.225.
For NCI-H1355, the relative viability was 0.747.
Work on NCI-H1395 yielded a relative viability of 0.603.
NCI-H1437 showed a relative viability of 1.19.
NCI-H1650 showed a relative viability of 0.216.
NCI-H1651 showed a relative viability of 1.08.
Cell Line NCI-H1666 has a relative viability of 1.03.
For NCI-H1734, the relative viability was 0.173.
NCI-H1755 gave a relative viability of 0.414.
For NCI-H1793, the relative viability was 0.182.
In the case of NCI-H1915, the relative viability is reported as 0.764.
NCI-H1944 showed a relative viability of 0.838.
Cell Line NCI-H1975 has a relative viability of 0.188.
Work on NCI-H1993 yielded a relative viability of 0.837.
Work on NCI-H2009 yielded a relative viability of 1.01.
With NCI-H2023 the relative viability was 0.751.
In the case of NCI-H2085, the relative viability is reported as 0.513.
For NCI-H2087, the relative viability was 0.167.
NCI-H2126 was tested, and the relative viability was 1.
With NCI-H2170 the relative viability was 0.609.
Work on NCI-H2228 yielded a relative viability of 0.209.
Work on NCI-H2342 yielded a relative viability of 0.719.
In the case of NCI-H2347, the relative viability is reported as 0.405.
Work on NCI-H2405 yielded a relative viability of 0.727.
Work on PC-3 [JPC-3] yielded a relative viability of 0.805.
Work on PC-14 yielded a relative viability of 0.167.

Same assay, conditions: first compound 0.8 µM
NCI-H522 gave a relative viability of 0.92.
With NCI-H647 the relative viability was 0.169.
In the case of NCI-H650, the relative viability is reported as 0.773.
NCI-H661 showed a relative viability of 1.01.
Cell Line NCI-H727 has a relative viability of 0.359.
For NCI-H838, the relative viability was 0.29.
With NCI-H1355 the relative viability was 0.697.
For NCI-H1395, the relative viability was 0.731.
NCI-H1437 showed a relative viability of 1.15.
With NCI-H1650 the relative viability was 0.199.
NCI-H1651 showed a relative viability of 0.774.
In the case of NCI-H1666, the relative viability is reported as 0.986.
Cell Line NCI-H1734 has a relative viability of 0.213.
Work on NCI-H1755 yielded a relative viability of 0.344.
NCI-H1793 showed a relative viability of 0.146.
NCI-H1915 showed a relative viability of 0.49.
NCI-H1944 was tested, and the relative viability was 0.751.
With NCI-H1975 the relative viability was 0.207.
In the case of NCI-H1993, the relative viability is reported as 0.929.
With NCI-H2009 the relative viability was 1.05.
NCI-H2085 showed a relative viability of 0.403.
For NCI-H2087, the relative viability was 0.159.
NCI-H2126 was tested, and the relative viability was 0.917.
Work on NCI-H2170 yielded a relative viability of 0.931.
NCI-H2228 showed a relative viability of 0.114.
For NCI-H2342, the relative viability was 0.74.
Cell Line NCI-H2347 has a relative viability of 0.243.
NCI-H2405 gave a relative viability of 0.625.
Work on NCI-H3122 yielded a relative viability of 0.115.
With PC-3 [JPC-3] the relative viability was 0.663.
For PC-14, the relative viability was 0.179.

Same assay, conditions: first compound 2.53 µM
Cell Line NCI-H522 has a relative viability of 1.06.
For NCI-H596, the relative viability was 0.875.
NCI-H647 was tested, and the relative viability was 0.126.
Work on NCI-H650 yielded a relative viability of 0.82.
NCI-H661 gave a relative viability of 1.04.
NCI-H727 was tested, and the relative viability was 0.322.
NCI-H838 was tested, and the relative viability was 0.389.
NCI-H1355 showed a relative viability of 0.642.
NCI-H1395 gave a relative viability of 0.684.
Work on NCI-H1437 yielded a relative viability of 1.07.
NCI-H1650 gave a relative viability of 0.173.
With NCI-H1651 the relative viability was 0.667.
NCI-H1666 gave a relative viability of 1.04.
Work on NCI-H1734 yielded a relative viability of 0.205.
In the case of NCI-H1755, the relative viability is reported as 0.482.
With NCI-H1793 the relative viability was 0.201.
Work on NCI-H1915 yielded a relative viability of 0.47.
NCI-H1944 showed a relative viability of 0.491.
Work on NCI-H1975 yielded a relative viability of 0.236.
With NCI-H1993 the relative viability was 0.928.
NCI-H2009 gave a relative viability of 0.898.
In the case of NCI-H2023, the relative viability is reported as 0.649.
For NCI-H2085, the relative viability was 0.348.
With NCI-H2087 the relative viability was 0.118.
With NCI-H2126 the relative viability was 1.05.
NCI-H2170 was tested, and the relative viability was 0.894.
With NCI-H2228 the relative viability was 0.188.
NCI-H2342 showed a relative viability of 0.809.
With NCI-H2347 the relative viability was 0.208.
Cell Line NCI-H2405 has a relative viability of 0.704.
Work on NCI-H3122 yielded a relative viability of 0.106.
With PC-3 [JPC-3] the relative viability was 0.82.
PC-14 showed a relative viability of 0.154.

Same assay, conditions: first compound 8 µM
With NCI-H522 the relative viability was 0.97.
With NCI-H596 the relative viability was 0.605.
Cell Line NCI-H647 has a relative viability of 0.132.
NCI-H650 gave a relative viability of 0.639.
In the case of NCI-H661, the relative viability is reported as 0.806.
Cell Line NCI-H727 has a relative viability of 0.344.
NCI-H838 gave a relative viability of 0.189.
Work on NCI-H1355 yielded a relative viability of 0.6.
Cell Line NCI-H1395 has a relative viability of 0.482.
In the case of NCI-H1437, the relative viability is reported as 0.813.
For NCI-H1650, the relative viability was 0.173.
Work on NCI-H1651 yielded a relative viability of 0.46.
Work on NCI-H1666 yielded a relative viability of 0.877.
NCI-H1734 was tested, and the relative viability was 0.151.
NCI-H1755 was tested, and the relative viability was 0.342.
NCI-H1793 was tested, and the relative viability was 0.23.
NCI-H1915 gave a relative viability of 0.448.
NCI-H1944 showed a relative viability of 0.507.
Cell Line NCI-H1975 has a relative viability of 0.152.
NCI-H1993 gave a relative viability of 0.746.
Cell Line NCI-H2009 has a relative viability of 0.564.
NCI-H2023 was tested, and the relative viability was 0.407.
NCI-H2085 was tested, and the relative viability was 0.302.
NCI-H2087 showed a relative viability of 0.175.
For NCI-H2126, the relative viability was 0.891.
NCI-H2170 gave a relative viability of 0.474.
NCI-H2228 was tested, and the relative viability was 0.185.
For NCI-H2342, the relative viability was 0.887.
In the case of NCI-H2347, the relative viability is reported as 0.306.
With NCI-H2405 the relative viability was 0.643.
NCI-H3122 was tested, and the relative viability was 0.102.
In the case of PC-3 [JPC-3], the relative viability is reported as 0.543.
PC-14 showed a relative viability of 0.134.
